From patent US9211325B2, “Peptide adjuvants” (priority 2008, dated 2015)
Entries after “also recorded” stand apart in the source; their conditions may differ.

Tested on: H5N1 A\Hanoi\30408\2005
Parameters: species or system BALB/c mice
Details: mouse, in vivo

With “KWCEC (Short peptide sequence not known to occur in nature) [5mer4]” the “clinical signs of disease” value was “no clinical signs of disease”, the survival was 90% and the “survival (protected from death)” value was 50%. The weight loss was “minimal weight loss; also recorded: no statistically significant weight loss”.
